Measured values from US10399950B2, “Substituted amino azoles as plant growth regulators” (SYNGENTA PARTICIPATIONS AG, priority 2013, dated 2019).

Key:
[1] = target: T1, Arabidopsis BIN2 kinase (Uniprot Q39011), His6-BIN2 (Arabidopsis thaliana, UniProt Q39011); experiment: In vitro assay for inhibition of plant GSK3/shaggy-like kinase activity (ADP-Glo); format: biochemical; conditions: compounds at 5 μM; 5 μM ATP; myelin basic protein substrate; 1 h at 20° C.; triplicate; read-out: inhibition of the activity of His6-BIN2 relative to the solvent vehicle control
T1 construct: made in house; host or cells: E. coli BL21
T1 sequence (Q39011 1-380): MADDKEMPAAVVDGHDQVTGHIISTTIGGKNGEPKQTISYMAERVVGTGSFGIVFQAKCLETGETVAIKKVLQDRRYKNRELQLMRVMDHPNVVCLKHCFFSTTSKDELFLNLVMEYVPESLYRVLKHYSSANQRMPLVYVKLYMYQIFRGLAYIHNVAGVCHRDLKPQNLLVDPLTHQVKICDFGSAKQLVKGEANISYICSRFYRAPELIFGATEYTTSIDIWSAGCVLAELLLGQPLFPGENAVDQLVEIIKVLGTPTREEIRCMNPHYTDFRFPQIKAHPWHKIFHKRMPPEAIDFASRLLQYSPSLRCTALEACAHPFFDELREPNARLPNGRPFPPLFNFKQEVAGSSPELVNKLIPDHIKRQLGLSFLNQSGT
Procedure: Arabidopsis BIN2 kinase (Uniprot Q39011) was produced in E. coli BL21 as an N-terminal hexahistidine fusion protein. In vitro kinase assays were performed by incubating 50 ng His6-BIN2 protein with 5 μg myelin basic protein (Sigma-Aldrich) as substrate and 5 μM ATP as co-substrate in reaction buffer consisting of 40 mM Tris-HCl, 20 mM MgCl2 and 0.1 mg/mL bovine serum albumin in a final reaction volume of 50 μl. Enzyme activity was assessed in the absence and presence of compounds (described in Tables A and B) at 5 μM by measuring the level of ADP produced after incubation for 1 h at 20° C. using an enzyme-coupled bioluminescent assay (ADP-Glo, Promega Corp.). The experiment was performed in triplicate and principaly on the acid form (as it the active A1).

[2] = system: Wheat (Triticum aestivum) seeds of the variety Arina; experiment: Wheat assay: plant (root and shoot) area and curliness of the roots; format: in vivo; conditions: seeds in pouches with 10 mL compound solution; scanned twelve days after sowing/application
Procedure: Two bioassays were developed in order to assay the activity of the compounds of the present invention. In the first assay, the activity of the compound was quantified in beans based on its effect on the elongation of the petiole of the second leaf. In the second assay, the compound's effect on the root growth of wheat was determined. The test compounds were dissolved in small volumes of dimethyl sulfoxide and diluted to the appropriate concentration with water. Wheat (Triticum aestivum) seeds of the variety Arina were sown in pouches (14.7×13.2 cm) containing 10 mL of the appropriate compound solution. The pouches were stored at 17° C. for three days to enable the seeds to germinate. Plants were then stored at 5° C. Twelve days after sowing/application, plants were removed from the pouches and scanned. The effect of the compounds was quantified by determining plant (root and shoot) area and curliness of the roots (curliness is an indicator of brassinosteroid-type activity).

Row | Structure (SMILES) | inhibition at 5 µM [1] [%] | curliness of the roots (indicator of brassinosteroid-type activity) [2] | melting point [°C]
1 | N#Cc1cnc(NC(=O)CCC(=O)O)s1 [A5, 4-[(5-cyanothiazol-2-yl)amino]-4-oxo-butanoic acid] | ≥ 20 | curly root phenotype | –
2 | COC(=O)CCC(=O)Nc1ncc(C#N)s1 [A1, Methyl 4-[(5-cyanothiazol-2-yl)amino]-4-oxo-butanoate] | – | curly root phenotype | 118 to 119
